Data as given in publication PMC8300687, “A Fine-Tuned Lipophilicity/Hydrophilicity Ratio Governs Antibacterial Potency and Selectivity of Bifurcated Halogen Bond-Forming NBTIs” (Antibiotics, 2021).
In brackets after ≈: the same amount, converted by molar mass. Where two headings read alike, the source gives them in different places.

How the values were obtained:
S. aureus DNA gyrase = molecular target: T1, S. aureus DNA gyrase (Staphylococcus aureus, UniProt P20831); assay: biochemical; type: biochemical; settings: for LE DNA Gyrase S. aureus: LE = (1.37/HA) × pIC50; for IC50: fluorescence plate supercoiling assay, mean of two to four measurements
T1 construct: purchased Inspiralis (Norwich, UK)
Procedure: (§1) A Gyrase Supercoiling High Throughput Plate assay kit, purchased from Inspiralis (Norwich. UK) was used to determine IC50 values of compounds on S. aureus and E. coli. […] Biotinylated oligonucleotide in wash buffer was immobilized onto the wells, and the excess oligonucleotide was washed off with wash buffer and ultrapure water. […] The reactions were stopped by adding the TF buffer (50 mM NaOAc (pH 4.7), 50 mM NaCl, and 50 mM MgCl2) to allow the triplex formation (biotin-oligonucleotide-plasmid) for additional 30 min. Afterward, the unbound plasmid was washed off using TF buffer, and the solution of Promega Diamond dye in T10 buffer (10 mM Tris-HCl (pH 8.0), 1 mM EDTA) was added. […] IC50 value represents the mean of two to four independent measurements.

E. coli DNA gyrase = molecular target: T2, E. coli DNA gyrase (Escherichia coli, UniProt P0AES4); assay: Gyrase Supercoiling High Throughput Plate assay, E. coli; type: biochemical; settings: for LE DNA Gyrase E. coli: LE = (1.37/HA) × pIC50
T2 construct: purchased Inspiralis (Norwich, UK)
Procedure: as §1

S. aureus Topo IV = molecular target: T3, S. aureus Topo IV (Staphylococcus aureus, UniProt Q2FYS4); assay: biochemical; settings: for IC50: mean of two to four measurements, read-out: Topoisomerase IV IC50 S. aureus; for LE Topo IV S. aureus: LE = (1.37/HA) × pIC50
T3 construct: purchased Inspiralis (Norwich, UK)
Procedure: (§2) A Topo IV Relaxation High Throughput Plate assay kit, purchased from Inspiralis (Norwich. UK) was used to determine IC50 values of compounds on S. aureus and E. coli. […] Biotinylated oligonucleotide in wash buffer was immobilized onto the wells, and the excess oligonucleotide was washed off with wash buffer and ultrapure water. 1.5 U of S. aureus or E. coli […] enzyme was incubated together with 0.75 μg of supercoiled pNO1 plasmid as a substrate in the presence of 3 μL inhibitor solution in 10% DMSO and 0.008% Tween 20 at 37 °C for 30 min in a final reaction volume of 30 μL in dilution buffer (50 mM Tris-HCl (pH 7.5), 1 mM DTT, 1 mM EDTA, 40% (w/v) glycerol for S. aureus and 40 mM HEPES, KOH (pH 7.6), 100 mM potassium glutamate, 1 mM DTT, 1 mM EDTA, and 40% (v/v) glycerol for E. coli). The reactions were stopped by adding the TF buffer (50 mM NaOAc (pH 4.7), 50 mM NaCl, and 50 mM MgCl2) to allow the triplex formation (biotin-oligonucleotide-plasmid) for additional 30 min. Afterward, the unbound plasmid was washed off using TF buffer, and the solution of Promega Diamond dye in T10 buffer (10 mM Tris-HCl (pH 8.0), 1 mM EDTA) was added. […] IC50 value represents the mean of two to four independent measurements.

E. coli Topo IV = molecular target: T4, E. coli Topo IV (Escherichia coli, UniProt P0AFI2); assay: Topo IV Relaxation High Throughput Plate assay, E. coli; type: biochemical; settings: for LE Topo IV E. coli: LE = (1.37/HA) × pIC50
T4 construct: purchased Inspiralis (Norwich, UK)
Procedure: as §2

[1] = test system: E. faecalis DRK 057 (ATCC 29212); assay: MIC broth microdilution, E. faecalis; type: cell-based; settings: Enterococcus faecalis, ATCC29212; read-out: MIC E. faecalis DRK 057 (ATCC 29212)
Procedure: (§3) Antimicrobial testing was carried out by the broth microdilution method in 96-well plate format following the Clinical and Laboratory Standards Institute (CLSI) guidelines and European Committee on Antimicrobial Susceptibility Testing (EUCAST) recommendations. Bacterial suspension of specific bacterial strain equivalent to 0.5 McFarland turbidity standard was diluted with cation-adjusted Mueller Hinton broth with TES (Thermo Fisher Diagnostic, Landsmeer, The Netherlands), to obtain a final inoculum of 10^5 CFU/mL. Compounds dissolved in DMSO and inoculum were mixed together and incubated for 18–20 h at 35 °C. Suspensions of Mycobacterium sp. were prepared into a tube of Middelbrook 7H9 broth supplemented with 5% OADC (Thermo Scientific, Trek Diagnostic Systems, West Sussex, UK) and incubated for at least 10 days. After incubation the minimal inhibitory concentration (MIC) values were determined by visual inspection as the lowest dilution of compounds showing no turbidity. Tetracycline was used as a positive control on every assay plate.

[2] = test system: S. agalactiae RDK 047 (QA-990/02); assay: MIC broth microdilution, S. agalactiae; type: cell-based; settings: Streptococcus agalactiae; read-out: MIC S. agalactiae RDK 047 (QA-990/02)
Procedure: as §3

E. coli (ATCC 25922) = assay: MIC broth microdilution, E. coli ATCC 25922; type: cell-based; settings: Escherichia coli, ATCC25922
How it was run: (§4)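 Broth microdilution per CLSI/EUCAST: 0.5 McFarland suspensions diluted in cation-adjusted Mueller Hinton broth with TES to a final 10^5 CFU/mL, mixed with compounds in DMSO, incubated 18–20 h at 35 °C. Mycobacterium in Middelbrook 7H9 + 5% OADC, ≥10 days. MIC read visually as lowest dilution without turbidity.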

E. coli (QA-11.3) = assay: MIC broth microdilution, E. coli QA-11.3; type: cell-based; settings: Escherichia coli, 20 h; read-out: MIC E. coli (QA-11.3)
Procedure: as §3

E. coli N43 (CGSC# 5583) = assay: MIC broth microdilution, E. coli N43; type: cell-based; settings: Escherichia coli
How it was run: as §4

[3] = test system: A. baumannii 8C6 (GES-14); assay: MIC broth microdilution, A. baumannii; type: cell-based; settings: Acinetobacter baumannii; read-out: MIC A. baumannii 8C6 (GES-14)
Procedure: as §3

[4] = test system: P. aeruginosa RDK 184 (DSM 939); assay: MIC broth microdilution, P. aeruginosa; type: cell-based; settings: Pseudomonas aeruginosa, DSM939; read-out: MIC P. aeruginosa RDK 184 (DSM 939)
Procedure: as §3

HUVEC = assay: Metabolic activity assessment (cytotoxicity), HUVEC; type: cell-based; settings: Homo sapiens, metabolic activity after 72 h treatment
Procedure: Cells of the HepG2 line (ATCC® HB-8065™) and HUVEC (ATCC® CRL-1730™) were cultured in Dulbecco’s Modified Eagle Medium (DMEM; Sigma-Aldrich, St. Louis, MO, USA) supplemented with 10% heat-deactivated FBS (Gibco, Grand Island, NE, USA), 2 mM L-glutamine, 100 U/mL penicillin, 100 μg/mL streptomycin (all from Sigma-Aldrich, St. Louis, MO, USA) in a humidified chamber at 37 °C and 5% CO2. The experiments were carried out on passages 7–9 for both cell lines. The tested compounds were dissolved in DMSO and further diluted in culture medium to a desired final concentration. Cells were seeded into 96-well plates at 8 × 10^4 cells/mL (100 μL/well) and incubated for 24 h to attach onto the wells. Cells were treated with 1 μM and 50 μM of each compound of interest or corresponding vehicle as control. […] The metabolic activity was assessed after 72 h treatment using the CellTiter 96 Aqueous One Solution Cell Proliferation Assay (Promega, Madison, WI, USA), in accordance with the manufacturer’s instructions. The absorbance was measured at 492 nm on an automated microplate reader BioTek Synergy HT (BioTek Instruments, Inc., Winooski, VT, USA). Data are presented as the percentage of metabolic activity of control cells stimulated with vehicle or as IC50 value (mean ± SD) from two independent experiments, each conducted in duplicate or triplicate. IC50 values were calculated by a non-linear regression model using Graph Pad Prism 7 software.

[5] = E. coli ATCC 25922, read-out: E. coli MIC (converted)
[6] = read-out: MIC E. coli (ATCC 25922)
[7] = read-out: E. coli N43 MIC in molar
[8] = read-out: MIC E. coli N43 (CGSC# 5583)

T2 sequence (P0AES4 whole entry): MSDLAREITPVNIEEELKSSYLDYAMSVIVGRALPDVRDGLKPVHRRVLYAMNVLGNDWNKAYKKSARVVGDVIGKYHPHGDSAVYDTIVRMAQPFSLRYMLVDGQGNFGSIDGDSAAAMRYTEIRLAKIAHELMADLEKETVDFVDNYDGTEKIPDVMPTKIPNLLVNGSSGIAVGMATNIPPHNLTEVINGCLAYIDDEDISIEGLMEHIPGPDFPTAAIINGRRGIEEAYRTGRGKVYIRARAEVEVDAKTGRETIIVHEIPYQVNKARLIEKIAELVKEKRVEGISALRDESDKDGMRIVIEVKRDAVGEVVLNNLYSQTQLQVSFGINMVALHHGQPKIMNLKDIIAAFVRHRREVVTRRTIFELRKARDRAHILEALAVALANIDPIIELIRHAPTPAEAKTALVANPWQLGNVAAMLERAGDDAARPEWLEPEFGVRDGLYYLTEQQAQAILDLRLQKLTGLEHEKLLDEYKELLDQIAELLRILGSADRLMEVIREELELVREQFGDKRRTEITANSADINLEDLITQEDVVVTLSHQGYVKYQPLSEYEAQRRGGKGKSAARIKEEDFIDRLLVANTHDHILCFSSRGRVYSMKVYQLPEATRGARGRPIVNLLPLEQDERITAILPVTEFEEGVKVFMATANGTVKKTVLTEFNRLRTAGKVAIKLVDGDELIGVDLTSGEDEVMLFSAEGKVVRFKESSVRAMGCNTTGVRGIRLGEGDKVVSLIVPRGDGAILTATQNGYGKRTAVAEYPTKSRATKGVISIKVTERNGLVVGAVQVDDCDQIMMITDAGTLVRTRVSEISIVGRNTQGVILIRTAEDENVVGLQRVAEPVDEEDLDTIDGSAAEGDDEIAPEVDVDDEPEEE
T1 sequence (P20831 whole entry): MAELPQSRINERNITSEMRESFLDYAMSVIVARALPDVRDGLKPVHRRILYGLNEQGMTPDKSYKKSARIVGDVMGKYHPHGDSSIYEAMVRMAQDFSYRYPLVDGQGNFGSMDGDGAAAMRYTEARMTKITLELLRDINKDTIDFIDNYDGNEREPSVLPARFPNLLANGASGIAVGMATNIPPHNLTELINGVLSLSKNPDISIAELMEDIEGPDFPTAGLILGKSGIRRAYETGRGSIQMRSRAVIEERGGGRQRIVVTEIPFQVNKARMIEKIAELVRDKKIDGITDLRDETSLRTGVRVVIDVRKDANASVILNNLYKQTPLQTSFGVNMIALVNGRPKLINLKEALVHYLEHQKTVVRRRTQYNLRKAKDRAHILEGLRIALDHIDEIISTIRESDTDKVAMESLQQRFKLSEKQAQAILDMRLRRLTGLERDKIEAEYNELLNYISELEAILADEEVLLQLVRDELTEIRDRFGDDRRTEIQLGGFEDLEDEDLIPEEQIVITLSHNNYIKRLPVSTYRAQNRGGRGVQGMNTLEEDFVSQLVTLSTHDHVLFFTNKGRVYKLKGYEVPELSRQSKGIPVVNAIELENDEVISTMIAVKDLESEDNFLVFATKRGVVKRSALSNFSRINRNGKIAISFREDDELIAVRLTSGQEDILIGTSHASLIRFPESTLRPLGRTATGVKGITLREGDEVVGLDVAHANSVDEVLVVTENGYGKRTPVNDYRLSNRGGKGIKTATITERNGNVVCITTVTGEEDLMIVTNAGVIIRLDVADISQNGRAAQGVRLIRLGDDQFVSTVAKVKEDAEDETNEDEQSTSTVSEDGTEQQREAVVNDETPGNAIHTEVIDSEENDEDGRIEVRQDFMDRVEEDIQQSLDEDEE
T1 sequence (P0A0K8 whole entry partner): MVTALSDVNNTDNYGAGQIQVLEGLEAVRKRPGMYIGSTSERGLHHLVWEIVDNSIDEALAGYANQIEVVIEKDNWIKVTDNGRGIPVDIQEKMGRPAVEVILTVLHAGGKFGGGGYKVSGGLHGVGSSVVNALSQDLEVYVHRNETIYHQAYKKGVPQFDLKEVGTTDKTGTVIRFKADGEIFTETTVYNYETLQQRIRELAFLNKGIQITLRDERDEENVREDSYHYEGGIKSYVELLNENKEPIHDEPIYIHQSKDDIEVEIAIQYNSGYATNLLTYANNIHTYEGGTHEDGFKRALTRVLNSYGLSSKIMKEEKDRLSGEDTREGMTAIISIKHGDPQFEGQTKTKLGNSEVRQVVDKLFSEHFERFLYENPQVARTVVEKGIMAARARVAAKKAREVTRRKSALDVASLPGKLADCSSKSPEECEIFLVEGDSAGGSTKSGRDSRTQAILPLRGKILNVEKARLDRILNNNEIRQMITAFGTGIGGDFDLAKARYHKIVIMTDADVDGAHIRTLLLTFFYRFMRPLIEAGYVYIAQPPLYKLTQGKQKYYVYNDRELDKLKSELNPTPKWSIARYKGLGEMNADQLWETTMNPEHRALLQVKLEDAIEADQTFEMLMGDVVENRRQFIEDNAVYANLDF
T4 sequence (P0AFI2 whole entry): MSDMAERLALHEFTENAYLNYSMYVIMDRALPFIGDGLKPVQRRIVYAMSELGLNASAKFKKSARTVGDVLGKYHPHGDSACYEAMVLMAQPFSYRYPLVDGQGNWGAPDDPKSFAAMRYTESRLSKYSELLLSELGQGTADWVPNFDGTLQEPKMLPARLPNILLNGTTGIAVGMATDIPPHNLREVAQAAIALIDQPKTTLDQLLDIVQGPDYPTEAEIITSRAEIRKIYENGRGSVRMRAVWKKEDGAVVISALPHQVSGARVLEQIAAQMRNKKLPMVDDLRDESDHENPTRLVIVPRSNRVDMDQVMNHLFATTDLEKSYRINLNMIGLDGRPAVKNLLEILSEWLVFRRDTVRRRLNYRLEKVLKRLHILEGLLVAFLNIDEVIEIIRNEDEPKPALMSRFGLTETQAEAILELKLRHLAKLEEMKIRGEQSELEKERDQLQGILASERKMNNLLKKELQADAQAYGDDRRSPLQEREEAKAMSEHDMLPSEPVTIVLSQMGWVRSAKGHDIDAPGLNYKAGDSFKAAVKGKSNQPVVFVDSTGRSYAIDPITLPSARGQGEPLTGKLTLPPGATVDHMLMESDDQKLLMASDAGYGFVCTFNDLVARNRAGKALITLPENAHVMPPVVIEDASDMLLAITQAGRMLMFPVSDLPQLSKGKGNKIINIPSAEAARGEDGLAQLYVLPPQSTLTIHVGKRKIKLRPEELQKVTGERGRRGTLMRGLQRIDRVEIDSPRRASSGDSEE
T4 sequence (P20083 whole entry, further chain): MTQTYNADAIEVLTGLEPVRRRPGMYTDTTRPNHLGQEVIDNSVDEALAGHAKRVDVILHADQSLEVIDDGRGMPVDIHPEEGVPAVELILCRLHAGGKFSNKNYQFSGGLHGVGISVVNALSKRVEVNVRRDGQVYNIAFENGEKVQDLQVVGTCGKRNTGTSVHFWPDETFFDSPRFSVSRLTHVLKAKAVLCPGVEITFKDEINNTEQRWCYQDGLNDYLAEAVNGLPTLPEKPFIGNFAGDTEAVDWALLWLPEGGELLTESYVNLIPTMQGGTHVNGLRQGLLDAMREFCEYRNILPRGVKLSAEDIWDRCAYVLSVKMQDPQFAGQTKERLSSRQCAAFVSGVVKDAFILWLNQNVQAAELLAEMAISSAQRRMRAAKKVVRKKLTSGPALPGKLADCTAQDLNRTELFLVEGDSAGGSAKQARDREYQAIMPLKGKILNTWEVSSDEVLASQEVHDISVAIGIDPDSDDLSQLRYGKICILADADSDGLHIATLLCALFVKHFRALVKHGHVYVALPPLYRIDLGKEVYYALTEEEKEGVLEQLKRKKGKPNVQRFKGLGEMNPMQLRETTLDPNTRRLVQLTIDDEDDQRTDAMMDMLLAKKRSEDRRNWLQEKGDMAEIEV

Row | SMILES | LE DNA Gyrase S. aureus (S. aureus DNA gyrase) | IC50 (S. aureus DNA gyrase) [µM] | IC50 (E. coli DNA gyrase) [µM] | LE DNA Gyrase E. coli (E. coli DNA gyrase) | IC50 (S. aureus Topo IV) [µM] | IC50 (E. coli Topo IV) [µM] | LE Topo IV E. coli (E. coli Topo IV) | MIC [1] [mg/L] | MIC [2] [mg/L] | MIC (E. coli (ATCC 25922); [5]) [µM] | MIC (E. coli (ATCC 25922); [6]) [mg/L] | MIC (E. coli (QA-11.3)) [mg/L] | MIC (E. coli N43 (CGSC# 5583); [7]) [µM] | MIC (E. coli N43 (CGSC# 5583); [8]) [mg/L] | MIC [3] [mg/L] | MIC [4] [mg/L] | IC50 (HUVEC) [µM] | LE Topo IV S. aureus (S. aureus Topo IV) | IC50 (HUVEC; 72 h) [µM]
1 | COc1ccc2nccc(CCN3CCC(NCc4cnn(-c5ccc(F)cc5)c4)CC3)c2n1 [Compound 4, N-((1-(4-Fluorophenyl)-1H-pyrazol-4-yl)methyl)-1-(2-(6-methoxy-1,5-naphthyridin-4-yl)ethyl)piperidin-4-amine] | 0.25 | 0.51 ± 0.25 | 13.3 ± 2.84 | 0.20 | > 100 | 0.12 ± 0.01 | 0.28 | 8 (≈ 17.4 µM) | 2 (≈ 4.34 µM) | 69.5 | 32 | 8 (≈ 17.4 µM) | 4.34 | 2 | 32 (≈ 69.5 µM) | > 128 | 9.64 ± 0.03 | – | –
2 | COc1ccc2nccc(CCN3CCC(NCc4ccc(OC(F)F)c(OC)c4)CC3)c2n1 [Compound 19, N-(4-(Difluoromethoxy)-3-methoxybenzyl)-1-(2-(6-methoxy-1,5-naphthyridin-4-yl)ethyl)piperidin-4-amine] | 0.26 | 0.35 ± 0.03 | 3.9 ± 0.06 | 0.22 | 29 ± 1.89 | 0.1 ± 0.01 | 0.28 | 16 (≈ 33.9 µM) | < 1 | 67.7 | 32 | 4 (≈ 8.46 µM) | 2.12 | 1 | 8 (≈ 16.9 µM) | > 128 | – | 0.18 | 19.8 ± 2.58
3 | COc1ccc2nccc(CCN3CCC(NCc4cnn(C(C)C)c4)CC3)c2n1 [Compound 9, N-((1-Isopropyl-1H-pyrazol-4-yl)methyl)-1-(2-(6-methoxy-1,5-naphthyridin-4-yl)ethyl)piperidin-4-amine] | 0.31 | 0.16 ± 0.01 | 2.95 ± 0.56 | 0.25 | 40.38 ± 0.09 | 0.23 | 0.30 | 1 (≈ 2.45 µM) | 0.5 (≈ 1.22 µM) | 19.6 | 8 | 4 (≈ 9.79 µM) | 0.61 | 0.25 | 2 (≈ 4.9 µM) | > 128 | > 50 | 0.20 | –
4 | COc1ccc2nccc(CCN3CCC(NCc4ccc(CO)cc4)CC3)c2n1 [Compound 16] | 0.24 | 4.39 ± 0.55 | 56.6 ± 3.32 | 0.19 | > 100 | 1.21 ± 0.05 | 0.27 | 8 (≈ 19.7 µM) | 8 (≈ 19.7 µM) | 315 | 128 | 32 (≈ 78.7 µM) | 39.4 | 16 | 128 (≈ 315 µM) | > 128 | – | – | > 50
5 | COc1ccc2nccc(CCN3CCC(NCc4ccc(C(F)(F)F)nc4)CC3)c2n1 [Compound 21, 1-(2-(6-Methoxy-1,5-naphthyridin-4-yl)ethyl)-N-((6-(trifluoromethyl)pyridin-3-yl)methyl)piperidin-4-amine] | 0.29 | 0.16 ± 0.02 | 6.91 ± 1.62 | 0.22 | 18.5 ± 1.32 | > 100 | – | 2 (≈ 4.49 µM) | 4 (≈ 8.98 µM) | 71.8 | 32 | 8 (≈ 18 µM) | 2.25 | 1 | 16 (≈ 35.9 µM) | > 128 | > 50 | 0.20 | –
